Results taken from patent EP1604976A1 (Advance Holdings Limited, priority 2004, dated 2005).
≈ marks a conversion by molar mass, not a printed value.

Experiments:
[1] = water solubility of products of Formula (I)
[2] = stability of product of Formula (I) in aqueous solution / acid medium; type: physicochemical
COX-2 = COX-2 (Homo sapiens, UniProt P35354); settings: Famaey 1997; Cullen et al. 1998; cited from earlier work
Chain of COX-2 (P35354 18-604): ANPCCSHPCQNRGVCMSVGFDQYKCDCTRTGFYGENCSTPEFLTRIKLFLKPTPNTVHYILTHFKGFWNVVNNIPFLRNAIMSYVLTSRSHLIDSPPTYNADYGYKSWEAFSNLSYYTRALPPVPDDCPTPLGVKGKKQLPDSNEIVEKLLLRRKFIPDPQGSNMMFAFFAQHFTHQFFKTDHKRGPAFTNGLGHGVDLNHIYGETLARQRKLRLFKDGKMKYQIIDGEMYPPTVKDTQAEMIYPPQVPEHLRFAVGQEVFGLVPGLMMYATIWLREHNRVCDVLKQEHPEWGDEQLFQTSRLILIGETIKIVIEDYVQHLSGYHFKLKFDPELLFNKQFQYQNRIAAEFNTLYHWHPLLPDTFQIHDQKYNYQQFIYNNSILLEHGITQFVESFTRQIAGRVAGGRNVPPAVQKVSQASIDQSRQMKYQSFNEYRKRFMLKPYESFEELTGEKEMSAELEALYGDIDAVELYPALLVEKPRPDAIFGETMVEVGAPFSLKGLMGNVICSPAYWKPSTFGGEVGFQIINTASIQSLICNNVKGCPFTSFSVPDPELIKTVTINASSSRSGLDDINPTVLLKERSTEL

With `CS(=O)(=O)N(c1ccc([N+](=O)[O-])cc1Oc1ccccc1)S(=O)(=O)O` [Product I in which X is Na] the solubility [1] was about 35 mg/mL (≈ 90.1 mM), the “effect of acidification of the solution” value ([2]; acidification to about pH 2 with HCl) was “decomposition of the product and precipitation of the theoretical quantity of nimesulide” and the “stability of the aqueous solution” value ([2]; approximately 3.5 wt.% aqueous solution, room temperature, seventh day) was “still stable on the seventh day”.

With `CS(=O)(=O)N(c1ccc([N+](=O)[O-])cc1Oc1ccccc1)S(=O)(=O)O` [acid form (X = H)] the “stability of the acid form” value ([2]; especially in an acid medium) was “rather unstable”.

For `CS(=O)(=O)Nc1ccc([N+](=O)[O-])cc1Oc1ccccc1` [nimesulide], the “COX-2 versus COX-1 inhibition preference” value (COX-2) is given as “inhibit preferentially COX-2 more than COX-1”.
